Results published in article PMC10296720, “A Truncated 14-Amino-Acid Myelin Protein-Zero-Targeting Peptide for Fluorescence-Guided Nerve-Preserving Surgery” (Biomolecules, 2023).
Values after ≈ are worked out from the molar mass of the structure shown. Where a SMILES comes first, the peptide text is derived from it. The star is where a group is joined. X2 = CC1(C)C(=CC=CC=CC2=[N+](CCCCS(=O)(=O)[O-])c3ccc(S(=O)(=O)O)cc3C2(C)C)N(CCCCCC(=O)NCCN2C(=O)CC(*)C2=O)c2ccc(S(=O)(=O)O)cc21

How the values were obtained:
[1] = tested on: P0-expressing RT4 D6P2T myelinating Schwannoma cells; assay: P0 staining and co-localization via fluorescence confocal microscopy; format: cell-based; details: 1 μM tracer, 1 h at 4 °C
Procedure: All chemicals were received from Actu-All Chemical (Oss, The Netherlands), Sigma Aldrich (St. Louis, MO, USA), Tokyo Chemical Industry (Tokyo, Japan), Biosolve BV (Valkenswaard, The Netherlands), and VWR Chemicals (Solon, OH, USA) and used without further purification. DMF and DMSO were dried over 4 Å molecular sieves for at least 24 h prior to use. Preparative high-pressure liquid chromatography (prep-HPLC) was performed on a Waters HPLC system (Waters Chromatography B.V., Etten-Leur, The Netherlands) using a 2545 quaternary gradient module pump and a 2489 UV detector. […] Absorption spectrometry was performed using a UV1280 UV–vis spectrometer (Shimadzu, Kyoto, Japan), and fluorescence spectrometry was performed using an LS55 (Perkin Elmer, Waltham, MA, USA). Fluorescence confocal imaging was performed using an SP8 WLL confocal microscope (Leica Microsystems, Wetzlar, Germany). The obtained images were analyzed using Leica Confocal Software (Leica Microsystems). The mean fluorescence intensity values per sample were measured using an LSRII flow cytometer (BD Biosciences, Franklin Lakes, NJ, USA) with APC-A settings (635 nm laser and 750 nm long-pass filter) for a Cy5 dye. […]
Semi-quenatitative assessment of the level of co-staining within the fluorescence […]

[2] = Solubility; format: physicochemical; details: as previously described (refs 27, 31, 36)
Procedure: (§1) Determination of the chemical and photophysical properties (LogP, solubility, serum binding, net charge, and brightness) was performed as previously described.

[3] = Brightness (in HSA); format: physicochemical, human; details: in human serum albumin
Procedure: as §1

[4] = LogP; format: physicochemical; details: as previously described (refs 27, 31, 36)
Procedure: as §1

[5] = Serum binding; format: in vitro ADME; details: as previously described (refs 27, 31, 36)
Procedure: as §1

[6] = target: myelin protein zero (Homo sapiens) (UniProt P25189); details: cited from earlier work
Sequence of myelin protein zero (Homo sapiens) (P25189 30-153): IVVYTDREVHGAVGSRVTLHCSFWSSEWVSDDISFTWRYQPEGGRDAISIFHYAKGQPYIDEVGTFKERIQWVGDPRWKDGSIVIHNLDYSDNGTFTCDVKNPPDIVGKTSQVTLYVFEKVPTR

Row | Compound | P0-related staining (pattern and intensity) ([1]; confocal microscopy, in words) | Solubility [2] [µM] | Brightness (in HSA) [3] | LogP [4] | Co-localization factor (scale: 0-1), Cy5 vs Lysosomes ([1]; N = 3 per tracer, semi-quantitative, Image J) | fraction unbound [5] | Kd [6] [nM]
1 | KNPPDIVGKTSQVTLYVFEKVPTRY [Cy5-P0_101–125] | in agreement with the location of P0 on the membrane | 172 | 67,760 |  |  |  | 
2 | CC[C@H](C)[C@H](NC(=O)[C@H](CC(=O)O)NC(C)=O)C(=O)N[C@H](C(=O)NCC(=O)N[C@@H](CCCCN)C(=O)N[C@H](C(=O)N[C@@H](CO)C(=O)N[C@@H](CCC(N)=O)C(=O)N[C@H](C(=O)N[C@H](C(=O)N[C@@H](CC(C)C)C(=O)N[C@@H](Cc1ccc(O)cc1)C(=O)N[C@H](C(=O)N[C@@H](Cc1ccccc1)C(=O)N[C@@H](CCC(=O)O)C(=O)N[C@@H](CCCCN)C(=O)N[C@H](C(=O)N1CCC[C@H]1C(=O)N[C@H](C(=O)N[C@@H](CCCNC(=N)N)C(=O)N[C@@H](Cc1ccc(O)cc1)C(=O)N[C@@H](CSC1CC(=O)N(CCNC(=O)CCCCCN2C(=CC=CC=CC3=[N+](CCCCS(=O)(=O)[O-])c4ccc(S(=O)(=O)O)cc4C3(C)C)C(C)(C)c3cc(S(=O)(=O)O)ccc32)C1=O)C(N)=O)[C@@H](C)O)C(C)C)C(C)C)[C@@H](C)O)C(C)C)[C@@H](C)O)C(C)C (stereo partly drawn) [Cy5-P0_105–125] (Ac-DIVGKTSQVTLYVFEKVPTRYC(X2)-NH2; N-terminus and C-terminus assumed) |  | 9 (≈ 31.3 µg/mL) | 157,300 | −0.60 ± 0.04 | low | 0.44 | 
3 | Cy5-P0101-125 101-125 (from UniProt P25189) |  |  |  |  |  |  | 104
